# Test system: HEK293 cells
# Experiment: Preliminary screening as mRNA vectors, EGFP mRNA transfection of HEK293 cells
# Type: cell-based
# Conditions: EGFP mRNA 50 ng per well, 96-well plates; percentage of GFP fluorescent cells relative to total number of cells (Hoechst)
# Outline: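 HEK293 cells in DMEM plus 10% FBS transfected in 96-well format with 50 ng EGFP mRNA per well; Lipofectamine2000 served as positive control. Read-out is the percentage of GFP-fluorescent cells among total cells, counted by Hoechst nuclear stain.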
row,SMILES,Absolute mRNA transfection efficiency in HEK293 cells [%]
1,CCCCCCCCCCCSc1nc(NCCN2CCOCC2)nc(SCCCCCCC)n1 [Compound D2S7S11],24.2
2,CCCCCCCCCCCNc1nc(NCCN2CCN(C)CC2)nc(SCCCCCCCCCCC)n1 [Compound D5S11N11],36.5
3,CCCCCCCNc1nc(NCCN2CCN(C)CC2)nc(SCCCCCC)n1 [Compound D5S6N7],4.3
4,CCCCCCCCCCCCCCSc1nc(NCCN2CCN(C)CC2)nc(SCCCCCCC)n1 [Compound D5S7S14],63.7
5,CCCCCCCCCCCNc1nc(NCCN2CCOCC2)nc(SCCCCCCC)n1 [Compound D2S7N11],16.0
6,CCCCCCCCCCCCCNc1nc(NCCCN(C)C)nc(SCCCCCCCC)n1 [Compound D6S8N13],58.0
7,CCCCCCCCCCCCCCCCCCSc1nc(NCCCN2CCOCC2)nc(SCCCCCCC)n1 [Compound D8S7S18],26.7
8,CCCCCCCCCCCCCCCCSc1nc(NCCN(CC)CC)nc(SCCCCCC)n1 [Compound D7S6S16],2.3
9,CCCCCCCCCCCCCCCCSc1nc(NCCCN2CCN(C)CC2)nc(SCCCCCCC)n1 [Compound D9S7S16],9.2
10,CCCCCCCCCCCCN(CCCCCCCCCCCC)c1nc(NCCN2CCOCC2)nc(SCCCCCC)n1 [D2S6^2N12],0.0
11,CCCCCCCCCCCCCCSc1nc(NCCN(C)C)nc(SCCCCCCC)n1 [Compound D1S7S14],3.1
12,CCCCCCCCCCCCCNc1nc(NCCN2CCCC2)nc(SCCCCCCCCCC)n1 [Compound D3S10N13],35.0
13,CCCCCCCCCCCCCCCCCCSc1nc(NCCCCCCCCC)nc(NCCCN(C)C)n1 [Compound D6S18N9],40.1
14,CCCCCCCCCCCCCCCCSc1nc(NCCCCCC)nc(NCCN2CCCCC2)n1 [Compound D4S16N6],2.6
15,CCCCCCCCCCCCCCCCNc1nc(NCCN2CCN(C)CC2)nc(SCCCCCCCCCCC)n1 [Compound D5S11N16],3.9
16,CCCCCCCCCSc1nc(NCCCCCCC)nc(NCCN2CCOCC2)n1 [Compound D2S9N7],4.2
17,CCCCCCCCCCCCCCCCCCNc1nc(NCCN2CCCC2)nc(SCCCCCCCC)n1 [Compound D3S8N18],28.6
18,CCCCCCCCCCCCCCCCCCNc1nc(NCCN(CC)CC)nc(SCCCCCCCCCC)n1 [Compound D7S10N18],25.9
19,CCCCCCCCCCCCSc1nc(NCCN2CCN(C)CC2)nc(SCCCCCCC)n1 [Compound D5S7S12],48.8
20,CCCCCCCCCCCCN(CCCCCCCCCCCC)c1nc(NCCN2CCOCC2)nc(SCCCCCCCCCC)n1 [D2S10^2N12],0.0
21,CCCCCCCCCCCCCCCCNc1nc(NCCCN(C)C)nc(SCCCCCCCC)n1 [Compound D6S8N16],67.0
22,CCCCCCCCCCCCCCCSc1nc(NCCCCCC)nc(NCCN2CCCCC2)n1 [Compound D4S15N6],1.3
23,CCCCCCCCCCCCCNc1nc(NCCN2CCN(C)CC2)nc(SCCCCCCCCC)n1 [Compound D5S9N13],41.5
24,CCCCCCCCCCCCCCCCCCSc1nc(NCCCCCCC)nc(NCCN(C)C)n1 [Compound D1S18N7],63.0
25,CCCCCCCCCSc1nc(NCCCCCCC)nc(NCC2CCN(C)CC2)n1 [Compound D10S9N7],0.9

row,SMILES,Absolute mRNA transfection efficiency in HEK293 cells [%]
1,CCCCCCCCSc1nc(NCCCN2CCOCC2)nc(SCCCCCCCC)n1 [Compound D8S8S8],48.2
2,CCCCCCCCCCCCN(CCCCCCCCCCCC)c1nc(NCCN2CCCCC2)nc(SCCCCCC)n1 [D4S6^2N12],2.2
3,CCCCCCCCCCCNc1nc(NCCCN2CCOCC2)nc(SCCCCCCCCCCC)n1 [Compound D8S11N11],3.6
4,CCCCCCCCCCCCN(CCCCCCCCCCCC)c1nc(NCCN2CCCC2)nc(SCCCCCC)n1 [D3S6^2N12],0.4
5,CCCCCCCCNc1nc(NCCN(C)C)nc(SCCCCCCC)n1 [Compound D1S7N8],2.0
6,CCCCCCCCCCCSc1nc(NCCCCCCCC)nc(NCCN(C)C)n1 [Compound D1S11N8],13.1
7,CCCCCCCCCCCCCNc1nc(NCCN2CCCCC2)nc(SCCCCCCC)n1 [Compound D4S7N13],0.7
8,CCCCCCCCCCCCCCCCCCNc1nc(NCCCN2CCOCC2)nc(SCCCCCCCCCCCCCCCC)n1 [Compound D8S16N18],0.0
9,CCCCCCCCCCCCCCCCCCSc1nc(NCCCCCCCCCCCCC)nc(NCCN(CC)CC)n1 [Compound D7S18N13],1.5
10,CCCCCCCCCCSc1nc(NCCCCCCCC)nc(NCCN2CCCC2)n1 [Compound D3S10N8],0.4
11,CCCCCCCCCCCCCCCCCCSc1nc(NCCCCCCCCCCCCCCC)nc(NCCCN(C)C)n1 [Compound D6S18N15],0.0
12,CCCCCCCCCCCCCCCCCCNc1nc(NCCN2CCN(C)CC2)nc(SCCCCCCCCCCCCCC)n1 [Compound D5S14N18],0.6
13,CCCCCCCCCSc1nc(NCCCCCCCC)nc(NCCN2CCCC2)n1 [Compound D3S9N8],10.4
14,CCCCCCCCCCCCCCCCCCSc1nc(NCC2CCN(C)CC2)nc(SCCCCCC)n1 [Compound D10S6S18],72.8
15,CCCCCCCCCCCCCCCSc1nc(NCCCCCCCCCCC)nc(NCCCN(C)C)n1 [Compound D6S15N11],7.8
16,CCCCCCCCCCCCNc1nc(NCC2CCN(C)CC2)nc(SCCCCCCCC)n1 [Compound D10S8N12],73.1
17,CCCCCCCCCCCCCCCCSc1nc(NCCCCCCCC)nc(NCCN(C)C)n1 [Compound D1S16N8],40.3
18,CCCCCCCCCCCNc1nc(NCCN2CCCC2)nc(SCCCCCCCC)n1 [Compound D3S8N11],6.6
19,CCCCCCCCNc1nc(NCCN(CC)CC)nc(SCCCCCCCC)n1 [Compound D7S8N8],2.5
20,CCCCCCCCCCCCCCCNc1nc(NCCN(C)C)nc(SCCCCCCCCCCCC)n1 [Compound D1S12N15],0.5
21,CCCCCCCCCCCCCCCNc1nc(NCCN2CCCCC2)nc(SCCCCCCCCCCCC)n1 [Compound D4S12N15],2.0
22,CCCCCCCCCCCCCCSc1nc(NCCN(CC)CC)nc(SCCCCCC)n1 [Compound D7S6S14],3.8
23,CCCCCCCCCCCCCCCCCCSc1nc(NCCN2CCN(C)CC2)nc(N(CCCCCCCCCCCC)CCCCCCCCCCCC)n1 [D5S18^2N12],0.0
24,CCCCCCCCCCCCCCCCNc1nc(NCC2CCN(C)CC2)nc(SCCCCCCC)n1 [Compound D10S7N16],44.3

# From patent US20230123334A1, “AMINO LIPID COMPOUND, PREPARATION METHOD THEREFOR, AND APPLICATION THEREOF” (SHENZHEN SHENXIN BIOTECHNOLOGY CO., LTD., priority 2020, published 2023)
